Results as given in patent US6723858B2, “Estrogenic compounds as anti-mitotic agents” (The Children's Medical Center Corporation, priority 1993, dated 2004).

Tested on: chick embryo chorioallantoic membrane new blood vessel cells (angiogenesis)
Experiment: chick embryo chorioallantoic membrane (CAM) assay
Assay type: in vivo
Details: 100 mg disk (methylcellulose disc) on CAM, after 48 hours
Description: Anti-mitotic activity is evaluated in situ by testing the ability of an improved estradiol derivative to inhibit the proliferation of new blood vessel cells (angiogenesis). A suitable assay is the chick embryo chorioallantoic membrane (CAM) assay described by Crum et al. Science 230:1375 (1985). See also, U.S. Pat. No. 5,001,116, hereby incorporated by reference, which describes the CAM assay. Briefly, fertilized chick embryos are removed from their shell on day 3 or 4, and a methylcellulose disc containing the drug is implanted on the chorioallantoic membrane. The embryos are examined 48 hours later and, if a clear avascular zone appears around the methylcellulose disc, the diameter of that zone is measured.

Row | SMILES | inhibition of cell mitosis and growth of new blood vessels
1 | COc1cc2c(cc1O)CCC1C2CCC2(C)C(O)CCC12 (stereo not shown) [2-Methoxyestradiol] | inhibit cell mitosis and the growth of new blood vessels

Tested on: tubulin
Experiment: inhibition of tubulin polymerization in vitro (turbidity at 350 nm)
Assay type: biochemical
Details: 20-75 μM at 37° C. (A) or 1.0-4.0 μM at 26° C. (B)
Description: Anti-mitotic activity can be evaluated by testing the ability of an estradiol derivative to inhibit tubulin polymerization and microtubule assembly in vitro. Microtubule assembly is followed in a Gilford recording spectrophotometer (model 250 or […]) equipped with electronic temperature controllers. […] The 0.24 ml reaction mixtures are incubated for 15 min. at 37° C. and then chilled on ice. After addition of 10 μl 2.5 mM GTP, the reaction mixture is transferred to a cuvette at 0° C., and a baseline established. At time zero, the temperature controller of the spectrophotometer is set at 37° C. Microtubule assembly is evaluated by increased turbity at 350 nm. […] The 0.24 ml reaction mixtures were incubated for 15 min at 37° C. and chilled on ice. After addition of 10 μl of 2.5 mM GTP the reaction mixtures were transferred to cuvettes held at 0° C., and baselines were established. At time zero the temperature controller was set at 37° C. At the times indicated by the vertical dashed lines the temperature controller was set at the indicated temperatures. […] The 0.24 ml reaction mixtures were incubated for 15 min at 26° C. and chilled on ice. After addition of 10 μl of 10 mM GTP the reaction mixtures were transferred to cuvettes held at 0° C., and baselines were established. At time zero the temperature controller was set at 26° C. At the time indicated by vertical dashed line the temperature controller was set at 0° C.

Row | SMILES | inhibition of tubulin polymerization (FIG. 1)
2 | COc1cc2c(cc1O)CCC1C2CCC2(C)C(O)CCC12 (stereo not shown) [2-Methoxyestradiol] | inhibition of tubulin polymerization

Same assay, conditions: read-out: IC50 (concentration required to inhibit tubulin polymerization by 50%); method of Example 1; average ± S.D., obtained graphically

Row | SMILES | IC50 [µM]
3 | C[C@]12CC[C@@H]3c4cc(Br)c(O)cc4CC[C@H]3[C@@H]1CC[C@@H]2O [2-Bromoestradiol] | 4.5 ± 0.6
4 | C[C@]12CC[C@@H]3c4cc(F)c(O)cc4CC[C@H]3[C@@H]1CC[C@@H]2O [2-Fluoroestradiol] | 27 ± 6
5 | C#C[C@]1(O)CC[C@H]2[C@@H]3CCc4cc(O)c(OC)cc4[C@H]3CC[C@@]21C [2-Methoxy-17-ethynylestradiol] | > 40
6 | COc1cc2c(cc1OC)C1CCC3(C)C(O)CCC3C1CC2 (stereo not shown) [2-Methoxyestradiol-3-O-methyl ether] | > 40
7 | COc1cc2c(cc1O)CCC1C2CCC2(C)C(O)CCC12 (stereo not shown) [2-Methoxyestradiol] | 1.9 ± 0.2
8 | COc1cc2c(cc1O)CC[C@@H]1[C@@H]2CC[C@]2(C)[C@@H](O)[C@H](O)C[C@@H]12 [2-Methoxyestriol] | > 40
9 | COc1cc2c(cc1O)CC[C@@H]1[C@@H]2CC[C@]2(C)C(=O)CC[C@@H]12 [2-Methoxyestrone] | 8.8 ± 1
10 | COc1ccc2c(c1OC)CCC1C2CCC2(C)C(O)CCC12 (stereo not shown) [4-Methoxyestradiol-3-O-methyl ether] | > 40
11 | COc1c(O)ccc2c1CCC1C2CCC2(C)C(O)CCC12 (stereo not shown) [4-Methoxyestradiol] | > 40
12 | C#C[C@]1(O)CC[C@H]2[C@@H]3CCc4cc(O)ccc4[C@H]3CC[C@@]21C [17-Ethynylestradiol, reference compound] | 10 ± 2
13 | COc1ccc(CCc2cc(OC)c(OC)c(OC)c2)cc1O [Dihydrocombretastatin A-4, reference compound] | 0.63 ± 0.03
14 | COc1ccc2c(c1)CC[C@@H]1[C@@H]2CC[C@]2(C)[C@@H](O)CC[C@@H]12 [Estradiol-3-O-methyl ether] | > 40
15 | C[C@]12CC[C@@H]3c4ccc(O)cc4CC[C@H]3[C@@H]1C[C@@H](O)[C@@H]2O [Estriol, reference compound] | > 40

Tested on: tubulin
Experiment: inhibition of [3H]colchicine binding to tubulin
Details: 1.0 μM tubulin, 5 μM [3H]colchicine, 5% DMSO, 10 min at 37° C.
Description: Incubation was for 10 min at 37° C.
Incubation was for 10 min at 37° C. […] S.D., standard deviation.

Row | inhibition of colchicine binding to tubulin (FIG. 2) | SMILES
16 | inhibits colchicine binding to tubulin | COc1cc2c(cc1O)CCC1C2CCC2(C)C(O)CCC12 (stereo not shown) [2-Methoxyestradiol]

Same assay, conditions: 100 μM inhibitor, 1.0 μM tubulin, 2 μM [3H]colchicine, 5% DMSO, 10 min at 37° C.

Row | SMILES | Percent inhibition ± S.D. of colchicine binding to tubulin [%]
17 | COc1cc2c(cc1O)CCC1C2CCC2(C)C(O)CCC12 (stereo not shown) [2-Methoxyestradiol] | 82 ± 2
18 | COc1cc2c(cc1O)CC[C@@H]1[C@@H]2CC[C@]2(C)C(=O)CC[C@@H]12 [2-Methoxyestrone] | 57 ± 6
19 | C#C[C@]1(O)CC[C@H]2[C@@H]3CCc4cc(O)ccc4[C@H]3CC[C@@]21C [17-Ethynylestradiol, reference compound] | 50 ± 7
